PubChem BioAssay AID1963873 (Molecular Pharmacology Branch, DTP, NCI, 2024)

Tested on: 276233-004-R-J1-PDC KRAS spheroids with HUVEC/MSC, viability
Assay: Anticancer human tumor 276233-004-R-J1-PDC patient-derived colon adenocarcinoma cell line growth inhibition [KRAS2]
Conditions: for IC50: curve of first compound; for viability, T/C: stronger effect = lower value
Description: Multicellular complex tumor spheroid response to RAS pathway inhibitors in combination with a targeted agents in patient-derived cell lines with oncogenic KRAS variants from multiple cancer types
A high-throughput screen of multi-cell type tumor spheroids was designed to identify active combinations of targeted small molecules and KRAS pathway inhibitors. Complex spheroids include a stromal component modeled by human endothelial cells (HUVEC) and fibroblasts modeled by human mesenchymal stem cells (MSCs). The concentration ranges selected for each drug and investigational agent were based upon clinically achievable concentrations if the clinical Cmax of the agent was known.
Compounds. The drugs and investigational agents: BI-3406 (NSC825286), BAY-293 (NSC824723), batoprotafib (TNO155; NSC825523), sotorasib (AMG 510; NSC818433), MRTX1257 (NSC819558), elimusertib (BAY 1895344; NSC800525), molibresib (GSK525762; NSC774829), temuterkib (LY3214996; NSC803410), venetoclax (NSC766270), alisertib (NSC759677), olaparib (NSC753686), talazoparib (NSC767125), erdafitinib (NSC781556), ipatasertib (NSC767898), cabozantinib (NSC761068), nintedanib (NSC756659), abemaciclib (NSC768073), docetaxel (NSC628503), trametinib (NSC758246), and sapanisertib (NSC764658) were obtained from the National Cancer Institute (NCI) Developmental Therapeutics Program Chemical Repository. The FDA-approved anticancer drug set is available from the Developmental Therapeutics Program. […] The stock solutions were prepared in dimethyl sulfoxide (DMSO, Sigma-Aldrich, St. Louis, MO, cat. D2650) at 800-fold the tested concentration and stored at -70 degrees C prior to their use. All drugs and investigational agents were tested over a range starting from a high concentration at or near the clinical Cmax and decreasing in half-log increments. If the clinical Cmax for an agent had not been determined, the highest concentration tested was 10 microM.
Cell Culture. All cells were maintained in an incubator at 37 degrees C and 5% CO2 with 95% humidity. The PDC lines were cultured according to standard operating procedures established by the NCI PDMR (https://pdmr.cancer.gov/sops/default.htm). Briefly, all PDCs were thawed and cultured in Matrigel-coated flasks prepared with a working solution of 1X Ham's F-12 nutrient mix, without supplementation (Invitrogen, Waltham, MA, cat. 11765054), 100 U/mL penicillin-streptomycin (Invitrogen, cat. 15140122), and 2.5% Matrigel (Corning Inc., Corning, NY, cat. 354248) for the first three passages. All PDCs were cultured in complete DMEM/F-12 media containing advanced DMEM/F-12 (Invitrogen, cat. 12634028), 4.9% defined fetal bovine serum, heat inactivated (HyClone Laboratories Inc., Logan, UT, cat. SH30070.03HI), 389 ng/mL hydrocortisone (Sigma-Aldrich, cat. H4001), 9.7 ng/mL human EGF recombinant protein (Invitrogen, cat. PHG0313), 23.4 microg/mL adenine (Sigma-Aldrich, cat. A2786), 97.3 U/mL penicillin-streptomycin (Invitrogen, cat. 15140122), 1.9 mM L-glutamine (Invitrogen, cat. 25030081), and 9.7 microM Y-27632 dihydrochloride (Tocris Bioscience, Bristol, United Kingdom, cat. 1254). The PDCs were cultured in complete DMEM/F12 media without 9.7 microM Y-27632 dihydrochloride for at least two passages prior to the screen. The established cell line HOP-62 was cultured in RPMI 1640 medium, HEPES (Invitrogen, cat. 22400105) with 10% defined fetal bovine serum (HyClone Laboratories Inc., cat. SH30070.03) and 2 mM L-glutamine (Invitrogen, cat. 25030081). The pooled donor HUVEC were cultured in endothelial cell growth medium 2 (PromoCell, Heidelberg, Germany, cat. C-22011) and the hMSC were cultured in mesenchymal stem cell growth medium 2 (PromoCell, cat. C-28009). For all experiments, HUVEC and hMSC were used at passages </=5, while the malignant cell lines were used at passages </=15. […]

[1] = second compound 0.1 µM, first compound 0.01 µM
[2] = second compound 0.1 µM, first compound 0.0316 µM
[3] = second compound 0.1 µM, first compound 0.1 µM
[4] = second compound 0.1 µM, first compound 0.316 µM
[5] = second compound 0.1 µM, first compound 1 µM
[6] = second compound 0.1 µM, first compound 3.16 µM
[7] = second compound 0.316 µM, first compound 0.01 µM
[8] = second compound 0.316 µM, first compound 0.0316 µM
[9] = second compound 0.316 µM, first compound 0.1 µM
[10] = second compound 0.316 µM, first compound 0.316 µM
[11] = second compound 0.316 µM, first compound 1 µM
[12] = second compound 0.316 µM, first compound 3.16 µM
[13] = second compound 1 µM, first compound 0.01 µM
[14] = second compound 1 µM, first compound 0.0316 µM
[15] = second compound 1 µM, first compound 0.1 µM
[16] = second compound 1 µM, first compound 0.316 µM
[17] = second compound 1 µM, first compound 1 µM
[18] = second compound 1 µM, first compound 3.16 µM
[19] = second compound 3.16 µM, first compound 0.01 µM
[20] = second compound 3.16 µM, first compound 0.0316 µM
[21] = second compound 3.16 µM, first compound 0.1 µM
[22] = second compound 3.16 µM, first compound 0.316 µM
[23] = second compound 3.16 µM, first compound 1 µM
[24] = second compound 3.16 µM, first compound 3.16 µM
[25] = second compound 10 µM, first compound 0.01 µM
[26] = second compound 10 µM, first compound 0.0316 µM
[27] = second compound 10 µM, first compound 0.1 µM
[28] = second compound 10 µM, first compound 0.316 µM
[29] = second compound 10 µM, first compound 1 µM
[30] = second compound 10 µM, first compound 3.16 µM
[31] = second compound 0.1 µM, first compound 10 µM
[32] = second compound 0.316 µM, first compound 10 µM
[33] = second compound 1 µM, first compound 10 µM
[34] = second compound 3.16 µM, first compound 10 µM
[35] = second compound 10 µM, first compound 10 µM
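Further: cells exposed to agents for seven days before viability read.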
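Wherever viability, T/C is given: 100% = DMSO vehicle control wells and lower values mean fewer viable cells.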

Compound | IC50 (second compound 0.1 µM) [µM] | IC50 (second compound 0.316 µM) [µM] | IC50 (second compound 1 µM) [µM] | IC50 (second compound 3.16 µM) [µM] | IC50 (second compound 10 µM) [µM] | viability, T/C [2] [%] | viability, T/C [3] [%] | viability, T/C [4] [%] | viability, T/C [5] [%] | viability, T/C [8] [%] | viability, T/C [9] [%] | viability, T/C [10] [%] | viability, T/C [11] [%] | viability, T/C [14] [%] | viability, T/C [15] [%] | viability, T/C [16] [%] | viability, T/C [17] [%] | viability, T/C [20] [%] | viability, T/C [21] [%] | viability, T/C [22] [%] | also measured
CC1COCCN1c1cc(-c2ccnn2C)c2ccnc(-c3ccn[nH]3)c2n1 (stereo not given) + C=CC(=O)N1CCN(c2nc(=O)n(-c3c(C)ccnc3C(C)C)c3nc(-c4c(O)cccc4F)c(F)cc23)C(C)C1 | > 3.16 | > 3.16 | > 3.16 | > 3.16 | 1 | 104 | 88.4 | 109 | 63.1 | 96.2 | 97.1 | 77.6 | 74.5 | 105 | 84.6 | 76.6 | 72.4 | 110 | 78.9 | 79.5 | viability, T/C [1]: 112%; viability, T/C [6]: 54.8%; viability, T/C [7]: 96.3%; viability, T/C [12]: 55.1%; viability, T/C [13]: 96%; viability, T/C [18]: 61.7%; viability, T/C [19]: 114%; viability, T/C [23]: 61.7%; viability, T/C [24]: 71%; viability, T/C [25]: 66%; viability, T/C [26]: 62.9%; viability, T/C [27]: 74.2%; viability, T/C [28]: 43.8%; viability, T/C [29]: 51.2%; viability, T/C [30]: 58.7%
CCN1CCN(Cc2ccc(Nc3ncc(F)c(-c4cc(F)c5nc(C)n(C(C)C)c5c4)n3)nc2)CC1 + C=CC(=O)N1CCN(c2nc(=O)n(-c3c(C)ccnc3C(C)C)c3nc(-c4c(O)cccc4F)c(F)cc23)C(C)C1 | > 1 | > 1 | > 1 | > 1 | > 1 | 83.5 | 98.2 | 88.1 | 106 | 82.4 | 81.8 | 101 | 125 | 93.7 | 88.8 | 110 | 101 | 91.2 | 80.2 | 74.2 | viability, T/C (second compound 0.1 µM, first compound 0.00316 µM): 85.7%; viability, T/C [1]: 105%; viability, T/C (second compound 0.316 µM, first compound 0.00316 µM): 100%; viability, T/C [7]: 78.8%; viability, T/C (second compound 1 µM, first compound 0.00316 µM): 95%; viability, T/C [13]: 118%; viability, T/C (second compound 3.16 µM, first compound 0.00316 µM): 92.7%; viability, T/C [19]: 101%; viability, T/C [23]: 119%; viability, T/C (second compound 10 µM, first compound 0.00316 µM): 62.9%; viability, T/C [25]: 68.2%; viability, T/C [26]: 69.7%; viability, T/C [27]: 70.3%; viability, T/C [28]: 87.1%; viability, T/C [29]: 65.4%
CCNC(=O)CC1N=C(c2ccc(Cl)cc2)c2cc(OC)ccc2-n2c(C)nnc21 (stereo not given) + C=CC(=O)N1CCN(c2nc(=O)n(-c3c(C)ccnc3C(C)C)c3nc(-c4c(O)cccc4F)c(F)cc23)C(C)C1 | > 10 | > 10 | > 10 | > 10 | > 10 | 102 | 86.5 | 78.5 | 76.6 | 111 | 92.8 | 72 | 81.5 | 87.5 | 101 | 72.7 | 63.3 | 84.4 | 87.1 | 108 | viability, T/C [6]: 62.6%; viability, T/C [31]: 65.4%; viability, T/C [12]: 69.7%; viability, T/C [32]: 79.3%; viability, T/C [18]: 81%; viability, T/C [33]: 71.5%; viability, T/C [23]: 49.4%; viability, T/C [24]: 83.2%; viability, T/C [34]: 69.3%; viability, T/C [26]: 79.6%; viability, T/C [27]: 63.3%; viability, T/C [28]: 66.2%; viability, T/C [29]: 61.3%; viability, T/C [30]: 74.7%; viability, T/C [35]: 54.2%
Cn1nccc1Nc1nccc(-c2cc3c(s2)C(C)(C)N(CCN2CCOCC2)C3=O)n1 + C=CC(=O)N1CCN(c2nc(=O)n(-c3c(C)ccnc3C(C)C)c3nc(-c4c(O)cccc4F)c(F)cc23)C(C)C1 | > 10 | > 10 | > 10 | > 10 | > 10 | 106 | 100 | 83.1 | 71.6 | 114 | 112 | 101 | 99.3 | 132 | 108 | 83.1 | 93.1 | 97.1 | 122 | 93.1 | viability, T/C [6]: 69.9%; viability, T/C [31]: 60.4%; viability, T/C [12]: 66.2%; viability, T/C [32]: 66.4%; viability, T/C [18]: 67.6%; viability, T/C [33]: 69.2%; viability, T/C [23]: 98.5%; viability, T/C [24]: 72.2%; viability, T/C [34]: 86.5%; viability, T/C [26]: 89.5%; viability, T/C [27]: 85.7%; viability, T/C [28]: 85.2%; viability, T/C [29]: 72.6%; viability, T/C [30]: 82.2%; viability, T/C [35]: 105%
